Data set [1] has as its system human influenza virus A/WSN. The data set can be described thus: Inhibitory activities against plaque formation of human influenza virus (plaque assay in MDCK cells). It counts as cell-based. To be noted: for inhibitory activities against growth of human influenza virus compared with amantadine: in words, versus amantadine.
The subject of data set [2] is human influenza virus (A/Fukuoka/80). The data set can be described thus: animal or person. Particulars: for IC50: unidentified influenza virus, 48 h, read-out: Concentration for 50% inhibition against proliferation of virus; for activities for inhibiting proliferation of human influenza virus compared with amantadine: in words, versus amantadine. Type of data set: in vivo, human influenza virus; embryonated chicken eggs.

The subject of data set [3] is MDCK cells (dog kidney cells). Particulars: for Cytotoxicity (printed in the inhibition rate column): 100.0 μg/ml, plaque assay, three days; for range of safety compared with amantadine: in words, versus amantadine.
The nature of the next data set: in vitro. Particulars: dog, mdck.
Setting [4] is: unidentified influenza virus, WSN, MDCK, 72 h, read-out: Inhibition rate (%) of plaque formation.

3 compounds from patent US4990537A, “Anti influenza agent” (priority 1988, dated 1991) can be followed below.

Usually inhibition stands for the share of the control response that was lost under treatment.

Turning to `NC12CC3CC(CC(C3)C1)C2` [Amantadine, amantadine, reference compound], the inhibition at 30 µg/mL in data set [1] (setting [4]) was 60.1%. In addition, in data set [2], the IC50 was > 100 µg/mL. In data set [3], the cytotoxicity entry is reported as “cytotoxicity slightly but distinctly” and the “Cytotoxicity (printed in the inhibition rate column)” value is on record as “Cytotoxicity”.

On to `CS(=O)(=O)O.CS(=O)(=O)O.N=C(N)Nc1ccc(C(=O)Oc2ccc3cc(C(=N)N)ccc3c2)cc1` [Compound A, 6-Amidino-2-naphthyl p-guanidinobenzoate dimethanesulfonate], for which, in data set [1], the “inhibitory activities against growth of human influenza virus compared with amantadine” value is reported as “even stronger inhibitory activities against growth of human influenza virus than amantadine”. Moreover, in data set [1] (setting [4]), the inhibition at 1 µg/mL was 19.9%, the inhibition at 2.5 µg/mL is 27.2%, the inhibition at 5 µg/mL is 52.1% and the inhibition at 10 µg/mL is 100%. For the same compound, in data set [1] (setting [4]), the inhibition at 25 µg/mL worked out at 100% and the inhibition at 50 µg/mL is 100%. Besides, in data set [2], the “activities for inhibiting proliferation of human influenza virus compared with amantadine” value is listed as “stronger activities for inhibiting proliferation of human influenza virus” and the IC50 worked out at 0.125 µg/mL. In data set [3], the “Cytotoxicity (printed in the inhibition rate column)” value is “Cytotoxicity” and the “range of safety compared with amantadine” value is listed as “wide range of safety as compared with amantadine”. Moreover, in the data set “in vitro”, the MNTC at 72 h is ≥ 50 µg/mL.

`CN(C)C(=O)COC(=O)Cc1ccc(OC(=O)c2ccc(NC(=N)N)cc2)cc1.CS(=O)(=O)O` [Compound B, N,N-dimethylcarbamoylmethyl p-(p-guanidinobenzoyloxy)phenylacetate methanesulfonate]: the “inhibitory activities against growth of human influenza virus compared with amantadine” value in data set [1] is listed as “even stronger inhibitory activities against growth of human influenza virus than amantadine”. Besides, in data set [1] (setting [4]), the inhibition at 10 µg/mL was 29.5%, the inhibition at 20 µg/mL was found to be 51.5%, the inhibition at 40 µg/mL worked out at 80.5% and the inhibition at 50 µg/mL worked out at 88%. Besides, the inhibition at 100 µg/mL in data set [1] (setting [4]) was 100%. Further, in data set [2], the “activities for inhibiting proliferation of human influenza virus compared with amantadine” value is “stronger activities for inhibiting proliferation of human influenza virus” and the IC50 was 1.25 µg/mL. The “range of safety compared with amantadine” value in data set [3] is recorded as “wide range of safety as compared with amantadine”. Besides, the MNTC at 72 h in “in vitro” was ≥ 1000 µg/mL.
